# Experimental data as given in US20260021167A1, “COMPOSITIONS AND METHODS FOR TREATING OR PREVENTING NEURODEGENERATIVE DISEASES” (Delaware State University, priority 2022, published 2026).
# Assays:
# protein aggregates = test: Thioflavin-T protein aggregation in brain sections of PFF-injected mice; assay type: in vivo, mouse
# PFF-injected old mice = test: Hindlimb clasping in PFF-injected mice; assay type: in vivo, mouse; details: 10 and/or 50 mg/kg oral, vs PFF only
# Method: (§1) A mouse model of Parkinson's disease is C57BL/6 male or female mice (50% each) injected with 5 μg of mouse PFF at 12 months old, followed by a treatment below for 6-7 weeks: • 1) without PFF injection, followed by vehicle (control, n=7); • 2) PFF injection, followed by vehicle (PFF only: control, n=8); • 3) PFF injection, followed by daily 10 mg/kg Momordin gavage (n=7-8); • 4) PFF injection, followed by daily 50 mg/kg Momordin gavage (n=7-8).
# Hindlimb Clasping. This is often characterized by bat-like posture when mice are picked up by the tail, indicating they are experiencing severe motor deficits. A mouse was placed on a horizontal plane and held at 2 cm from the tail tip, then slowly to the height of 10 cm from the surface. A video was recorded for 15 sec for each trial. A total of 3 trials were taken over 3 consecutive days and analyzed for the time in hindlimb clasping by a blinded rater.
# SUMO-1 = test: Western blot of SUMO-1 in brain tissue extracts of PFF-injected mice; assay type: in vivo, mouse; details: vs PFF only
# Method: as §1
# Immunoblot Analyses. A total of three protein extractions were performed. In the first extraction, a gentle RIPA buffer containing the low concentration of detergent (25 mM Tris-HCL, 150 mM NaCl, 1% NP-40, 1% sodium deoxycholate and 0.1% SDS) was added with phosphatase inhibitors (100 μL for 10 mL) and 5 mM EDTA. The mixture was sonicated and centrifuged at 14,000 rpm for 10 min. The supernatant was collected for measuring the levels of phosphorylated α-syn, SENP-1 or SUMO-1 conjugated proteins for different groups. […] The primary antibodies pertaining to each protein analyzed were diluted at 1:1000 (p-Ser-129-α-synuclein, Cell signaling; SENP-1, SAB4501345, EMD) and incubated at 4° C. overnight. […] ImageJ was used to analyze specific bands on each blot and measured against the loading control (β-actin) for normalizing each band intensity.
# [1] = tested on: N27 dopaminergic cell line; test: In vitro cell death induced by MPP+ or PFF; assay type: cell-based, rat; details: MPP+ or PFF-mediated toxic conditions
# TH+ dopaminergic neurons = test: Immunohistochemistry of TH staining in striatum and SNc of PFF-injected mice; assay type: in vivo, mouse
# Method: as §1
# Immunohistochemistry. The serial coronal sections of the right hemisphere were collected throughout the striatum and substantia nigra. Each section with a thickness of 14 μm was mounted as a set of 5 onto positively charged slides (Midwest Sci, Valley Park, MO). The slides were kept at −80° C. until immunohistochemistry was performed. The sections were thawed at room temperature for 30 min, followed by a rehydration step in 0.1M PB for 10 min. The permeabilization step was performed using pre-chilled 100% acetone for 10 min. The excess acetone was dried, and permeabilization solution (40 µL Triton-X in 2% BSA) was added to the slides and kept aside for an additional 10 min. A blocking reagent containing 5% BSA in PB-T was given in the blocking step after drying the slides of excess permeabilization solution. The primary antibody was exposed under the coverslips to prevent the dehydration of the primary antibody. After the primary antibody (EMD Millipore-AB152) treatment at 4° C. overnight, the tissues were washed in PBS-T for 5 min three times. Then, slides were treated with a secondary antibody of Alexa-647-conjugated goat anti-rabbit (1:1000; Molecular Probes, Thermo Fisher Scientific) and incubated at room temperature for 2 h. The secondary antibody was washed in PBS-T for 3×5 min. Coverslips were mounted on slides using ProLong Diamond antifade mounting medium (Thermofisher, MA, USA). All images were captured using EVOS FL Cell Imaging Systems (Invitrogen), and every fifth section was analyzed for measuring the intensity of TH staining in the striatum and counting TH+ neurons in the SNc in a blinded manner. The same procedure was used for assessing the levels of phosphorylated Ser-129-α-synuclein (1:500, Cell signaling, cat #23706S) and protein aggregation using thioflavin-T (20 μM, Acros). Pictures for specific regions such as the striatum and ventral midbrain (vMB) were taken using confocal microscopy and stitched together to obtain a single image for representation purposes. The intensities were measured using ImageJ by a blinded rater.
# Immunohistochemistry. The serial coronal sections of the right hemisphere were collected throughout the striatum and substantia nigra. Each section with a thickness of 14 μm was mounted as a set of 5 onto positively charged slides (Midwest Sci, Valley Park, MO). […]
# [2] = both 10 and 50 mg/kg oral, PFF-injected mice, vs PFF only
compound,measurement,setting,value
CC1(C)CC[C@]2(C(=O)O)CC[C@]3(C)C(=CC[C@@H]4[C@@]5(C)CC[C@H](O[C@@H]6O[C@H](C(=O)O)[C@@H](O)[C@H](O[C@@H]7OC[C@@H](O)[C@H](O)[C@H]7O)[C@H]6O)C(C)(C)[C@@H]5CC[C@]43C)[C@@H]2C1 [Momordin lc],level of alpha-synuclein accumulation/aggregation in Thioflavin-T staining in various brain regions,"protein aggregates; PFF injection, mouse brains",reduced the level of alpha-synuclein accumulation/aggregation
same,level of protein aggregates (Thioflavin-T) in the SNc,protein aggregates; [2],significantly reduced
same,level of protein aggregates (Thioflavin-T) in the striatum,protein aggregates; [2],significantly reduced
same,hindlimb clasping,PFF-injected old mice,reduces hindlimb clasping
same,"level of SUMO-1 in the MB (Western blot, tissue extracts)",SUMO-1; midbrain,enhanced level of SUMO-1
same,"level of SUMO-1 in the STR (Western blot, tissue extracts)",SUMO-1; striatum,enhanced level of SUMO-1
same,protection against in vitro cell death,[1],protect against in vitro cell death
same,recovery from damages in the striatum and Substantia Nigra compacta (SNc),"TH+ dopaminergic neurons; 50 mg/kg oral for 6-7 weeks, PFF-injected mice",effective
same,dopaminergic neuronal death / neuronal cell loss in mouse brains,TH+ dopaminergic neurons; PFF injection,reverse dopaminergic neuronal death
same,number of TH+ dopaminergic neurons in the SNc,"TH+ dopaminergic neurons; both doses (10 and 50 mg/kg) oral for 6-7 weeks, PFF-injected mice, vs PFF only",significantly recovered
same,intensity of TH+ label in the striatum,"TH+ dopaminergic neurons; oral treatment for 6-7 weeks, PFF-injected mice, vs PFF only",improves the intensity of TH+ label
